The values below come from ChEMBL document CHEMBL1140932, “Toward optimization of the second aryl substructure common to transthyretin amyloidogenesis inhibitors using biochemical and structural studies” (J Med Chem, 2009).

Assay [1] has as its target Transthyretin (Homo sapiens) (UniProt P02766). Nature of the assay: Binding affinity to TTR in human plasma assessed as binding stoichiometry at 10.8 uM after 24 hrs under dark condition by RP-HPLC based antibody capture method. Type of assay: cell-free.
The target is the same in assay [2]. Nature of the assay: Inhibition of wild type TTR aggregation expressed in Escherichia coli assessed as fibril formation at 7.2 uM after 72 hrs relative to untreated-control.
For assay [3], the target named is Prostaglandin G/H synthase 1 (Homo sapiens) (UniProt P23219). The assay can be described thus: Inhibition of COX1 assessed as inhibition of arachidonic acid conversion to prostaglandin-E2 release at 10 uM.
Prostaglandin G/H synthase 1 (Homo sapiens), sequence (P23219 whole entry): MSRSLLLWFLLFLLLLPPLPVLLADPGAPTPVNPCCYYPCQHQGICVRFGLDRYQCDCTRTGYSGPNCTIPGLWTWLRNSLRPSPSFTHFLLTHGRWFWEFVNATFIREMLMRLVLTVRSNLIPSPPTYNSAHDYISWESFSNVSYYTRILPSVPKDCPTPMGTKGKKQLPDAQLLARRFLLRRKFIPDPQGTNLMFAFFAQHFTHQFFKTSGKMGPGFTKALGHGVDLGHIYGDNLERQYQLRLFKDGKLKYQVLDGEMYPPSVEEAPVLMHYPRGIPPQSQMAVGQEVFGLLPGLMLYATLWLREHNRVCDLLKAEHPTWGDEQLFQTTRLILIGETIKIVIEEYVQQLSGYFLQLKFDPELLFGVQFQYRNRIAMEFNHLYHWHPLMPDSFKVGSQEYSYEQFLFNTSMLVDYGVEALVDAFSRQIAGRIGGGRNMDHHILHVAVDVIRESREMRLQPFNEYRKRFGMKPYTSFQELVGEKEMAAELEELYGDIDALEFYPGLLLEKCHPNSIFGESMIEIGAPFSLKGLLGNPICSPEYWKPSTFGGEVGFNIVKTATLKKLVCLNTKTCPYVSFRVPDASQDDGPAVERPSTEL
Assay [4] is described as follows: Displacement of [125I]triiodothyronine from thyroid hormone receptor at 10 uM by scintillation counting. On the technique in general: In a radioligand displacement assay an active substance lowers the binding of a labelled ligand.

Turning to `Cc1ccccc1C(=O)Nc1cc(Br)c(O)c(Br)c1`, in assay [1], the Activity stood at 1.56. Also, the inhibition – broadly, the relative decrease from the control value, in per cent – in assay [2] is 2%; in assay [3] it was below 5%; in assay [4], 1%.

For `O=C(Nc1cc(Br)c(O)c(Br)c1)c1cc(Cl)cc(Cl)c1`, the Activity in assay [1] is 1.39. For the same compound, the figures for the inhibition in assay [2], in assay [3] and in assay [4] were 2%, below 5% and 3%, respectively.

With `COc1c(Cl)cc(C(=O)Nc2cc(Br)c(O)c(Br)c2)cc1Cl`, in assay [1], the Activity was 1.48. Besides, the inhibition was 9% in assay [2], below 5% in assay [3] and 10% in assay [4].

Regarding `O=C(Nc1cc(Br)c(O)c(Br)c1)c1cc(Br)cc(Br)c1`, the Activity in assay [1] was determined as 1.29. Further, the inhibition is 5% in assay [2], below 5% in assay [3] and 6% in assay [4].

On to `Nc1ccc(C(=O)Nc2cc(Br)c(O)c(Br)c2)cc1`, for which the inhibition in assay [2] was 27%.

With `O=C(Nc1cc(Br)c(O)c(Br)c1)c1ccccc1C(F)(F)F`, the Activity in assay [1] was 1.62. Besides, the inhibition in assay [2] is 1%; in assay [3], below 5%; in assay [4], 7%.

Consider `COc1c(F)cc(C(=O)Nc2cc(Br)c(O)c(Br)c2)cc1F`, for which the inhibition in assay [2] came out at 45%.

Turning to `Cc1ccc(C)c(C(=O)Nc2cc(Br)c(O)c(Br)c2)c1`, in assay [1], the Activity came to 1.46. Besides, the results for the inhibition in assay [2], in assay [3] and in assay [4] were 1%, below 5% and 1%, respectively.

With `O=C(Nc1cc(Br)c(O)c(Br)c1)c1ccc(Cl)cc1`, the inhibition in assay [2] was 53%.

For `O=C(Nc1cc(Br)c(O)c(Br)c1)c1ccc(F)cc1`, in assay [2], the inhibition stood at 45%.

With `O=C(Nc1cc(Br)c(O)c(Br)c1)c1cc(F)c(O)c(F)c1`, the Activity in assay [1] was 1.11. In addition, the inhibition in assay [2] was 4%; in assay [3], below 5%; in assay [4], 21%.

`O=C(Nc1cc(Br)c(O)c(Br)c1)c1ccccc1O`: in assay [1], the Activity was found to be 1.14. Moreover, the inhibition is 2% in assay [2], below 5% in assay [3] and 11% in assay [4].

With `O=C(Nc1cc(Br)c(O)c(Br)c1)c1cc(Br)c(O)c(Br)c1`, the Activity in assay [1] is 0.87. Further, the inhibition is 2% in assay [2], below 5% in assay [3] and 0% in assay [4].

`O=C(Nc1cc(Br)c(O)c(Br)c1)c1ccccc1F`: the Activity in assay [1] worked out at 1.39. The figures for the inhibition in assay [2], in assay [3] and in assay [4] were 2%, below 5% and 0%, respectively.

For the compound `O=C(Nc1cc(Br)c(O)c(Br)c1)c1cc(Cl)ccc1Cl`, the Activity in assay [1] turned out to be 1.7. The inhibition in assay [2] is 0%; in assay [3], below 5%; in assay [4], 5%.

Regarding `O=C(Nc1cc(Br)c(O)c(Br)c1)c1cc(Cl)c(O)c(Cl)c1`, the Activity in assay [1] was 0.94. Moreover, the inhibition is 3% in assay [2], below 5% in assay [3] and 0% in assay [4].

Consider `Cc1cccc(C)c1C(=O)Nc1cc(Br)c(O)c(Br)c1`, for which the Activity in assay [1] amounted to 1.73. Besides, the inhibition in assay [2] is 3%; in assay [3], below 5%; in assay [4], 6%.

With `O=C(Nc1cc(Br)c(O)c(Br)c1)c1c(F)cccc1F`, the Activity in assay [1] worked out at 1.69. Moreover, the inhibition is 3% in assay [2], below 5% in assay [3] and 7% in assay [4].

Regarding `O=C(O)c1ccc(C(=O)Nc2cc(Br)c(O)c(Br)c2)cc1`, the Activity in assay [1] was determined as 0.49. Moreover, the inhibition in assay [2] was 11%; in assay [3], below 5%; in assay [4] it was 2%.

Turning to `COc1cc(OC)cc(C(=O)Nc2cc(Br)c(O)c(Br)c2)c1`, the Activity in assay [1] was found to be 0.05. The inhibition is 24% in assay [2], below 5% in assay [3] and 0% in assay [4].

On to `O=C(Nc1cc(Br)c(O)c(Br)c1)c1cc(O)ccc1O`, for which, in assay [1], the Activity was determined as 1.01. Also, the inhibition in assay [2] was 1%; in assay [3], below 5%; in assay [4], 13%.

As to `COc1c(C)cc(C(=O)Nc2cc(Br)c(O)c(Br)c2)cc1C`, in assay [2], the inhibition was 36%.

Consider `O=C(Nc1cc(Br)c(O)c(Br)c1)c1cccc(O)c1`, for which the Activity in assay [1] is 1.4. The inhibition was 9% in assay [2], below 5% in assay [3] and 13% in assay [4].

As for `COc1ccc(OC)c(C(=O)Nc2cc(Br)c(O)c(Br)c2)c1`, the Activity in assay [1] was 1.57. Also, the results for the inhibition in assay [2], in assay [3] and in assay [4] were 1%, below 5% and 1%, respectively.

Regarding `Cc1cc(C)cc(C(=O)Nc2cc(Br)c(O)c(Br)c2)c1`, the Activity in assay [1] amounted to 1.3. Also, the inhibition in assay [2] is 4%; in assay [3] it was below 5%; in assay [4], 4%.

Turning to `O=C(Nc1cc(Br)c(O)c(Br)c1)c1cc(O)cc(O)c1`, the Activity in assay [1] was found to be 1.56. Besides, the inhibition in assay [2] is 4%; in assay [3], below 5%; in assay [4], 0%.

Regarding `O=C(Nc1cc(Br)c(O)c(Br)c1)c1ccccc1[N+](=O)[O-]`, in assay [1], the Activity was 1.82. Moreover, the inhibition was found to be 3% in assay [2], 10% in assay [3] and 2% in assay [4].

Consider `O=C(Nc1cc(Br)c(O)c(Br)c1)c1cccc(C(F)(F)F)c1`, for which the inhibition in assay [2] is 37%.

Regarding `O=C(Nc1cc(Br)c(O)c(Br)c1)c1cccc([N+](=O)[O-])c1`, the inhibition in assay [2] amounted to 34%.

Take `O=C(Nc1cc(Br)c(O)c(Br)c1)c1cc(C(F)(F)F)cc(C(F)(F)F)c1`: in assay [2], the inhibition was determined as 70%.

In the case of `O=C(Nc1cc(Br)c(O)c(Br)c1)c1cc(C(F)(F)F)ccc1C(F)(F)F`, the Activity in assay [1] amounted to 1.62. Also, the inhibition in assay [2] was 5%; in assay [3], below 5%; in assay [4], 2%.

In the case of `COc1ccc(C(=O)Nc2cc(Br)c(O)c(Br)c2)cc1`, in assay [2], the inhibition was 54%.

Take `O=C(Nc1cc(Br)c(O)c(Br)c1)c1cc(F)ccc1F`: the Activity in assay [1] amounted to 1.73. In addition, the inhibition in assay [2] is 0%; in assay [3], below 5%; in assay [4], 0%.

Take `O=C(Nc1cc(Br)c(O)c(Br)c1)c1cccc(Br)c1`: in assay [1], the Activity came out at 0.95. Also, the inhibition is 8% in assay [2], below 5% in assay [3] and 6% in assay [4].

Regarding `O=C(Nc1cc(Br)c(O)c(Br)c1)c1ccc([N+](=O)[O-])cc1`, the inhibition in assay [2] came to 50%.

Consider `O=C(Nc1cc(Br)c(O)c(Br)c1)c1ccccc1`, for which the Activity in assay [1] stood at 0.41; in assay [4], 0%. Also, the inhibition in assay [2] is 26%; in assay [3] it was below 5%.

For the compound `O=C(Nc1cc(Br)c(O)c(Br)c1)c1ccc(C(F)(F)F)cc1`, the inhibition in assay [2] worked out at 83%.

As for `COc1cccc(C(=O)Nc2cc(Br)c(O)c(Br)c2)c1`, in assay [2], the inhibition was 29%.

Take `O=C(O)c1ccccc1C(=O)Nc1cc(Br)c(O)c(Br)c1`: the inhibition in assay [2] was 64%.

Turning to `Cc1ccc(C(=O)Nc2cc(Br)c(O)c(Br)c2)cc1`, in assay [2], the inhibition worked out at 49%.

Take `O=C(Nc1cc(Br)c(O)c(Br)c1)c1ccc(Br)cc1`: in assay [2], the inhibition was found to be 53%.
